Assay results from ChEMBL document CHEMBL3351493, “Beta-aminoketones as prodrugs for selective irreversible inhibitors of type-1 methionine aminopeptidases” (Bioorg Med Chem Lett, 2014).
Activity calls are given as the source filed them. No cut-off for these calls is given here.

Tests used:
[1] = test system: Escherichia coli; experiment: Antimicrobial activity against Escherichia coli BL21(DE3) assessed as inhibition of bacterial growth incubated at 37 degC for 7 hrs; assay type: functional
[2] = test system: SW707; experiment: Cytotoxicity against human SW707 cells at 1.6 to 100 ug/ml after 72 hrs by crystal violet assay; assay type: functional, cell-based
[3] = target: Methionine aminopeptidase 1 (Homo sapiens, UniProt P53582); experiment: Inhibition of N-terminal poly-His-tagged human MetAP-1 expressed in Escherichia coli BL21(DE3) incubated for 30 mins before MGMM substrate addition by fluorescence assay
[4] = test system: Ca-Ski; experiment: Cytotoxicity against human CaSki cells at 1.6 to 100 ug/ml after 72 hrs by crystal violet assay; assay type: functional, cell-based
[5] = target: Methionine aminopeptidase 2 (Homo sapiens, UniProt P50579); conditions: sf9
Description: Inhibition of human MetAP-2 expressed in Sf9 cells incubated for 60 mins before MGMM substrate addition by fluorescence assay

[6] = Cytotoxicity against human Flow 2002 cells at 1.6 to 100 ug/ml after 72 hrs by crystal violet assay; assay type: cell-based; conditions: flow 2002, 72 h
[7] = Half life assessed as decomposition into amines and unsaturated ketones at 250 uM in 50 mM Tris/maleate pH 7.5 buffer by HPLC method; assay type: physicochemical; conditions: for t1/2: buffer, pH 7.5, 250 µM; for half-life at 250 µM: Tris/maleate buffer, pH 7.5
[8] = target: Methionine aminopeptidase (Staphylococcus aureus (strain COL), UniProt Q5HEN6); experiment: Inhibition of N-terminal poly-His-tagged Staphylococcus aureus COL MetAP expressed in Escherichia coli BL21(DE3) incubated for 30 mins before MGMM substrate addition by fluorescence assay; parameters: species or system Staphylococcus aureus subsp. aureus COL
[9] = test system: CAPAN-1; experiment: Cytotoxicity against human Capan1 cells at 1.6 to 100 ug/ml after 72 hrs by crystal violet assay; assay type: functional, cell-based
[10] = test system: A 172; experiment: Cytotoxicity against human A172 cells at 1.6 to 100 ug/ml after 72 hrs by crystal violet assay; assay type: functional, cell-based
[11] = target: T1, Methionine aminopeptidase (Escherichia coli K-12, UniProt P0AE18); experiment: Inhibition of C-terminal poly-His-tagged Escherichia coli MetAP expressed in Escherichia coli BL21(DE3) incubated for 30 mins before MGMM substrate addition by fluorescence assay
T1 sequence (P0AE18 whole entry): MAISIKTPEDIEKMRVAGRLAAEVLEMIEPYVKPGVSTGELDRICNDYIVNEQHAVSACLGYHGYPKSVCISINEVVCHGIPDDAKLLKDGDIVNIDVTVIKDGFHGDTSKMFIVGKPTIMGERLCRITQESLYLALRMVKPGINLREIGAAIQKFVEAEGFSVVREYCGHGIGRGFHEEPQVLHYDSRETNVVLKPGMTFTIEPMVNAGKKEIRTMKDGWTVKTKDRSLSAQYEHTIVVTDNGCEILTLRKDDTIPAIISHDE

[12] = test system: MeWo; experiment: Cytotoxicity against human MeWo cells at 1.6 to 100 ug/ml after 72 hrs by crystal violet assay; assay type: functional, cell-based
[13] = test system: BT-474; experiment: Cytotoxicity against human BT474 cells at 1.6 to 100 ug/ml after 72 hrs by crystal violet assay; assay type: functional, cell-based
[14] = test system: HaCaT; experiment: Cytotoxicity against human HaCaT cells at 1.6 to 100 ug/ml after 72 hrs by crystal violet assay; assay type: cell-based
[15] = test system: Calu-6; experiment: Cytotoxicity against human Calu6 cells at 1.6 to 100 ug/ml after 72 hrs by crystal violet assay; assay type: functional, cell-based
[16] = test system: Escherichia coli; experiment: Antimicrobial activity against Escherichia coli BL21(DE3) assessed as inhibition of bacterial growth at 200 uM incubated at 37 degC for 7 hrs; assay type: functional; conditions: for inhibition at 200 µM: BL21-DE3, 7 h
[17] = test system: A-431; experiment: Cytotoxicity against human A431 cells at 1.6 to 100 ug/ml after 72 hrs by crystal violet assay; assay type: functional, cell-based
[18] = Glutathione reactivity assessed as second-order rate constant at 250 uM at pH 6.0 by HPLC-UV method

Sequence of Methionine aminopeptidase 2 (P50579 whole entry): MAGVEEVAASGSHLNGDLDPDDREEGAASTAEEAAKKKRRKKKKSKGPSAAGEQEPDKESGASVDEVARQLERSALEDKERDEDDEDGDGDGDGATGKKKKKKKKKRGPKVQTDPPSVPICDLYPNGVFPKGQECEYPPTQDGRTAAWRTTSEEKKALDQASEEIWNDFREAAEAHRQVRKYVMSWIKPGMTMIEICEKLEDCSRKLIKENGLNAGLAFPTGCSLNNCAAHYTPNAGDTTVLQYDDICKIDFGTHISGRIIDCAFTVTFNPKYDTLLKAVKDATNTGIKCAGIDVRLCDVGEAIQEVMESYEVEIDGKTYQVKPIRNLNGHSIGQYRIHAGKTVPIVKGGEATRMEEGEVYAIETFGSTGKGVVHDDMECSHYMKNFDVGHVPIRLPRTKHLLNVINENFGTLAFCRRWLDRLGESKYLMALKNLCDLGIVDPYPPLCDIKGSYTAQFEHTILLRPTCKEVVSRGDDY

Row | IC50 [3] | IC50 [5] | IC50 [8] | half-life at 250 µM [7] | IC50 ([11]; read-out: IC50) | SMILES | Activity [2] | Activity [4] | Activity [6] | Activity [9] | Activity [10] | Activity [12] | Activity [13] | Activity [14] | Activity [15] | Activity [17] | inhibition at 200 µM [16] | other results
1 | Not Active | Not Active | Not Active |  |  | CCC(CN(C)C)C(=O)c1ccccc1.Cl (configuration not stated) | Active | Active | Toxic | Active | Active | Active | Active | Toxic | Active | Active |  | t1/2 [7]: Stable; IC50 [11]: Not Active; inhibition [16]: inactive
2 | Not Active | Not Active | Not Active | 6.8 h | 2.1 µM | COc1ccc2c(c1)C(=O)C(CN(C)C)CC2.Cl (configuration not stated) | Active | Active | Toxic | Active | Active | Active | Active | Toxic | Active | Active | 49% | 
3 | Not Active | Not Active | Not Active | 14.4 h | 9.1 µM | Cl.O=C1c2ccccc2CCC1CN1CCCCC1 (configuration not stated) | Active | Active | Toxic | Active | Active | Active | Active | Toxic | Active | Active | 28% | 
4 | Not Active | Not Active | Not Active | 14.4 h | 45.5 µM | Cc1cc(C)c2c(c1)C(=O)C(CN(C)C)CC2.Cl (configuration not stated) | Active | Active | Toxic | Active | Active | Active | Active | Toxic | Active | Active | 56% | 
5 | Not Active | Not Active |  | 0.933 h | 1.7 µM | COc1cc2c(cc1OC)C(=O)C(CN(C)C)C2.Cl (configuration not stated) | Active | Active | Toxic | Active | Active | Active | Active | Toxic | Active | Active | 17% | IC50 ([8]; read-out: IC50): 18.9 µM

Second part, the molecule before the results:

Row | SMILES | IC50 [3] | IC50 [5] | IC50 [8] | half-life at 250 µM [7] | IC50 ([11]; read-out: IC50) | Activity [2] | Activity [4] | Activity [6] | Activity [9] | Activity [10] | Activity [12] | Activity [13] | Activity [14] | Activity [15] | Activity [17] | inhibition at 200 µM [16] | other results
6 | C[C@@H]1O[C@@H]1P(=O)([O-])[O-].[Na+].[Na+] [PHOSPHOMYCIN DISODIUM] |  |  |  |  |  |  |  |  |  |  |  |  |  |  |  |  | MIC [1]: 20 µg/mL
7 | C=C1CCc2ccccc2C1=O |  |  |  |  |  | Active | Active | Toxic | Active | Active | Active | Active | Toxic | Active | Active |  | K [18]: 1.4 M⁻¹ s⁻¹
8 | C=C1CCc2ccc(OC)cc2C1=O |  |  |  |  |  | Active | Active | Toxic | Active | Active | Active | Active | Toxic | Active | Active |  | K [18]: 1.7 M⁻¹ s⁻¹
9 | COc1cccc(C(=O)CCN2CCCCC2)c1.Cl | Not Active | Not Active | Not Active |  |  | Active | Active | Toxic | Active | Active | Active | Active | Toxic | Active | Active |  | t1/2 [7]: Stable; IC50 [11]: Not Active; inhibition [16]: inactive
10 | CN(C)[C@@H]1C(O)=C(C(N)=O)C(=O)[C@@]2(O)C(O)=C3C(=O)c4c(O)cccc4[C@@](C)(O)[C@H]3C[C@@H]12.Cl [TETRACYCLINE HYDROCHLORIDE] |  |  |  |  |  |  |  |  |  |  |  |  |  |  |  |  | MIC [1]: 1 µg/mL
11 | NC[C@H]1O[C@H](O[C@H]2[C@H](O)[C@@H](O[C@H]3O[C@H](CO)[C@@H](O)[C@H](N)[C@H]3O)[C@H](N)C[C@@H]2N)[C@H](O)[C@@H](O)[C@@H]1O.O=S(=O)(O)O [KANAMYCIN SULFATE] |  |  |  |  |  |  |  |  |  |  |  |  |  |  |  |  | MIC [1]: 10 µg/mL
12 | Cl.O=C(CCN1CCCCC1)c1ccccc1 | Not Active | Not Active | Not Active |  |  | Active | Active | Toxic | Active | Active | Active | Active | Toxic | Active | Active |  | t1/2 [7]: Stable; IC50 [11]: Not Active; inhibition [16]: inactive
